Test results published in patent publication US10160753B2, “Indazole compounds as IRAK4 inhibitors” (Aurigene Discovery Technologies Limited, priority 2014, dated 2018).
Structures can show the parent of a compound that is named as a salt.

Target: T1, recombinant IRAK-4 kinase (Homo sapiens, UniProt Q9NWZ3)
T1 construct: purchased Millipore, USA
T1 sequence (Q9NWZ3 1-460): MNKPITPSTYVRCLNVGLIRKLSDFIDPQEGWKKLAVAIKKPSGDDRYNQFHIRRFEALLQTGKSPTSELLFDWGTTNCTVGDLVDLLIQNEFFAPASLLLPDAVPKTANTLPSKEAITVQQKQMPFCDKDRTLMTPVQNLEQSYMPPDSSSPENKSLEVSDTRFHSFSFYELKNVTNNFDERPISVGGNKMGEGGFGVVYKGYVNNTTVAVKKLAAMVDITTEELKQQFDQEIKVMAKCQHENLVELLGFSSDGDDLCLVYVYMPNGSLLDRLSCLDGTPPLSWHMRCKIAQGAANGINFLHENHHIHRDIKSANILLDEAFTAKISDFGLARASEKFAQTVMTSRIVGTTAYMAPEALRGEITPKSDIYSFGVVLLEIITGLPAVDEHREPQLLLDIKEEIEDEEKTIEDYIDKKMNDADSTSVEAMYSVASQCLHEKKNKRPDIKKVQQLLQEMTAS
Test: IRAK-4 Biochemical Assay (TR-FRET)
Details: 30 min pre-incubation, 100 nM Biotin Histone H3, 20 μM ATP, read-out: IC50 values for IRAK4 activity
Protocol: Compounds were tested for their potential to inhibit IRAK-4 enzyme in a TR-FRET assay using recombinant IRAK-4 kinase from Millipore, USA. The assay buffer was 50 mM Tris-HCl pH 7.5, 20 mM MgCl2, 1 mM EGTA, 2 mM DTT, 3 mM MnCl2 and 0.01% Tween 20.5 ng of IRAK-4 kinase was used for the assay. After pre-incubation of enzyme with test compound for 30 minutes at room temperature, a substrate mixture containing 100 nM Biotin Histone H3 (Millipore, USA) and 20 μM ATP (Sigma, USA) was added and the reaction was incubated for 30 min. Post incubation, the reaction was stopped by the addition of stop mix containing 40 mM EDTA, 1 nM of Europium-Anti-Phospho-Histone H3 (Ser10) antibody (Perkin Elmer, USA) and 20 nM SureLight Allophycocyanin-Streptavidin (Perkin Elmer, USA). The fluorescence emission at 615 nm and 665 nm were measured at an excitation of 340 nm and the percent inhibition was estimated from the ratio of the fluorescence intensities [(F665/F615)×10000]. The compounds were initially screened at 1 μM and 10 μM concentrations and potent compounds (>50% inhibition at 1 μM) were taken for dose response studies. The IC50 values were estimated by fitting the dose-response data to sigmoidal dose response (variable slope), curve fitting program using Graphpad Prism software Version 6.01.

`Cn1cc2cc(NC(=O)c3coc(-c4ccnc(N)c4)n3)c(N3CCCC(F)C3)cc2n1` (stereo not drawn) [Example 104, 2-(2-aminopyridin-4-yl)-N-(6-(3-fluoropiperidin-1-yl)-2-methyl-2H-indazol-5-yl)oxazole-4-carboxamide hydrochloride] and `Cc1cc(-c2nc(C(=O)Nc3cc4cn(C)nc4cc3N3CCCC(O)C3)co2)ccn1` (stereo not drawn) [Example 68, N-(6-(3-hydroxypiperidin-1-yl)-2-methyl-2H-indazol-5-yl)-2-(2-methylpyridin-4-yl)oxazole-4-carboxamide] cannot be ordered by IC50: less than 0.05 µM for the first, less than 0.05 µM for the second.

`Cc1cc(-c2nc(C(=O)Nc3cc4cn(C)nc4cc3N3CCC(CO)CC3)co2)ccn1` [Example 80, N-(6-(4-(hydroxymethyl)piperidin-1-yl)-2-methyl-2H-indazol-5-yl)-2-(2-methylpyridin-4-yl)oxazole-4-carboxamide] and `Cn1cc2cc(NC(=O)c3coc(-c4ccnc(N)c4)n3)c(N3CCC(CO)CC3)cc2n1` [Example 100, 2-(2-aminopyridin-4-yl)-N-(6-(4-(hydroxymethyl)piperidin-1-yl)-2-methyl-2H-indazol-5-yl)oxazole-4-carboxamide hydrochloride] cannot be ordered by IC50: less than 0.05 µM for the first, less than 0.05 µM for the second.

`Cc1cc(-c2nc(C(=O)Nc3cc4cn(C)nc4cc3C3CC3)co2)ccn1` [Example 16, N-(6-cyclopropyl-2-methyl-2H-indazol-5-yl)-2-(2-methylpyridin-4-yl)oxazole-4-carboxamide hydrochloride] and `Cc1cc(-c2nc(C(=O)Nc3cc4cn(C)nc4cc3N3CC[C@@H](O)C3)co2)ccn1` [Example 65, (R)—N-(6-(3-hydroxypyrrolidin-1-yl)-2-methyl-2H-indazol-5-yl)-2-(2-methylpyridin-4-yl)oxazole-4-carboxamide] cannot be ordered by IC50: less than 0.05 µM for the first, less than 0.05 µM for the second.

Going from `C[C@H](O)Cn1cc(-c2cccc(C(=O)Nc3cc4cnn(C)c4cc3N3CCC(CO)CC3)n2)cn1` [Example 95, (S)—N-(6-(4-(hydroxymethyl)piperidin-1-yl)-1-methyl-1H-indazol-5-yl)-6-(1-(2-hydroxypropyl)-1H-pyrazol-4-yl)picolinamide] to `C[C@H](O)Cn1cc(-c2cccc(C(=O)Nc3cc4cn(C)nc4cc3N3CCCCC3)n2)cn1` [Example 34, (S)-6-(1-(2-hydroxypropyl)-1H-pyrazol-4-yl)-N-(2-methyl-6-(piperidin-1-yl)-2H-indazol-5-yl)picolinamide], the IC50 falls from greater than 0.1 µM to less than 0.05 µM. The second is the more potent here.

`COc1ccc(-c2nc(C(=O)Nc3cc4cn(C5CCCC5)nc4cc3C3CC3)co2)cn1` [Example 20, N-(2-cyclopentyl-6-cyclopropyl-2H-indazol-5-yl)-2-(6-methoxypyridin-3-yl)oxazole-4-carboxamide] and `Cc1ccc(-c2nc(C(=O)Nc3cc4cn(C5CCCC5)nc4cc3C3CC3)co2)cn1` [Example 28, N-(2-cyclopentyl-6-cyclopropyl-2H-indazol-5-yl)-2-(6-methylpyridin-3-yl)oxazole-4-carboxamide] cannot be ordered by IC50: less than 0.05 µM for the first, less than 0.05 µM for the second.

`Cc1cc(-c2nc(C(=O)Nc3cc4c(C)n(C)nc4cc3N3CCCCC3)co2)ccn1` [Example 73, N-(2,3-dimethyl-6-(piperidin-1-yl)-2H-indazol-5-yl)-2-(2-methylpyridin-4-yl)oxazole-4-carboxamide] and `Cc1cc(-c2nc(C(=O)Nc3cc4c(C)n(C)nc4cc3N3CCC(O)CC3)co2)ccn1` [Example 83, N-(6-(4-hydroxypiperidin-1-yl)-2,3-dimethyl-2H-indazol-5-yl)-2-(2-methylpyridin-4-yl)oxazole-4-carboxamide] cannot be ordered by IC50: less than 0.05 µM for the first, less than 0.05 µM for the second.

Compared with `Cn1cc(-c2cccc(C(=O)Nc3cc4cnn(C5CCCC5)c4cc3C3CC3)n2)cn1` [Example 17, N-(1-cyclopentyl-6-cyclopropyl-1H-indazol-5-yl)-6-(1-methyl-1H-pyrazol-4-yl)picolinamide], `Cn1cc(-c2cccc(C(=O)Nc3cc4cn(C5CCCC5)nc4cc3C3CC3)n2)cn1` [Example 18, N-(2-cyclopentyl-6-cyclopropyl-2H-indazol-5-yl)-6-(1-methyl-1H-pyrazol-4-yl)picolinamide] is lower in IC50: greater than 0.1 µM for the first, less than 0.05 µM for the second.

`Cn1cc2cc(NC(=O)c3coc(-c4ccnc(NS(C)(=O)=O)c4)n3)c(N3CCC(O)CC3)cc2n1` [Example 123, N-(6-(4-hydroxypiperidin-1-yl)-2-methyl-2H-indazol-5-yl)-2-(2-(methylsulfonamido)pyridin-4-yl) oxazole-4-carboxamide] and `Cc1cc(-c2nc(C(=O)Nc3cc4cn(C)nc4cc3N3CCC(O)CC3)co2)ccn1` [Example 58, N-(6-(4-hydroxypiperidin-1-yl)-2-methyl-2H-indazol-5-yl)-2-(2-methylpyridin-4-yl)oxazole-4-carboxamide] cannot be ordered by IC50: less than 0.05 µM for the first, less than 0.05 µM for the second.

`Cn1cc2cc(NC(=O)c3coc(-c4ccnc(Cl)c4)n3)c(N3CCCCC3)cc2n1` [Example 15, 2-(2-chloropyridin-4-yl)-N-(2-methyl-6-(piperidin-1-yl)-2H-indazol-5-yl)oxazole-4-carboxamide hydrochloride] and `CC(=O)Nc1cc(-c2nc(C(=O)Nc3cc4cn(C)nc4cc3N3CCCCC3)co2)ccn1` [Example 84, 2-(2-acetamidopyridin-4-yl)-N-(2-methyl-6-(piperidin-1-yl)-2H-indazol-5-yl)oxazole-4-carboxamide] cannot be ordered by IC50: less than 0.05 µM for the first, less than 0.05 µM for the second.

`Cc1cc(-c2ccc(C(=O)Nc3cc4cn(C)nc4cc3N3CCC(O)CC3)o2)ccn1` [Example 67, N-(6-(4-hydroxypiperidin-1-yl)-2-methyl-2H-indazol-5-yl)-5-(2-methylpyridin-4-yl)furan-2-carboxamide] and `Cc1cc(-c2ccc(C(=O)Nc3cc4cn(C)nc4cc3N3CCC[C@@H](O)C3)o2)ccn1` [Example 69, (R)—N-(6-(3-hydroxypiperidin-1-yl)-2-methyl-2H-indazol-5-yl)-5-(2-methylpyridin-4-yl)furan-2-carboxamide] cannot be ordered by IC50: less than 0.05 µM for the first, less than 0.05 µM for the second.

`Cn1cc2cc(NC(=O)c3cccc(Br)n3)c(N3CCCCC3)cc2n1` [Example 23, 6-bromo-N-(2-methyl-6-(piperidin-1-yl)-2H-indazol-5-yl)picolinamide] and `Cn1cc2cc(NC(=O)c3cccc(N4CC[C@@H](O)C4)n3)c(N3CCCCC3)cc2n1` [Example 38, (R)-6-(3-hydroxypyrrolidin-1-yl)-N-(2-methyl-6-(piperidin-1-yl)-2H-indazol-5-yl)picolinamide] cannot be ordered by IC50: less than 0.05 µM for the first, less than 0.05 µM for the second.

`Cc1cc(-c2nc(C(=O)Nc3cc4c(C)nn(C)c4cc3N3CCC(F)CC3)co2)ccn1` [Example 87, N-(6-(4-fluoropiperidin-1-yl)-1,3-dimethyl-1H-indazol-5-yl)-2-(2-methylpyridin-4-yl)oxazole-4-carboxamide] and `Cn1ncc2cc(NC(=O)c3coc(-c4ccnc(O)c4)n3)c(N3CCC(O)CC3)cc21` [Example 113, N-(6-(4-hydroxypiperidin-1-yl)-1-methyl-1H-indazol-5-yl)-2-(2-hydroxypyridin-4-yl)oxazole-4-carboxamide] cannot be ordered by IC50: less than 0.05 µM for the first, less than 0.05 µM for the second.

`Cc1ccc(C(=O)Nc2cc3cn(C)nc3cc2N2CCCCC2)nc1-c1ccc(N)nc1` [Example 29, 6′-amino-3-methyl-N-(2-methyl-6-(piperidin-1-yl)-2H-indazol-5-yl)-[2,3′-bipyridine]-6-carboxamide hydrochloride] and `Cn1cc2cc(NC(=O)c3coc(-c4cccnc4O)n3)c(N3CCCCC3)cc2n1` [Example 32, 2-(2-hydroxypyridin-3-yl)-N-(2-methyl-6-(piperidin-1-yl)-2H-indazol-5-yl)oxazole-4-carboxamide] cannot be ordered by IC50: less than 0.05 µM for the first, less than 0.05 µM for the second.

`Cc1cc(-c2nc(C(=O)Nc3cc4cn(C)nc4cc3N[C@H]3CC[C@H](O)CC3)co2)ccn1` [Example 88, N-(6-(((1R,4R)-4-hydroxycyclohexyl)amino)-2-methyl-2H-indazol-5-yl)-2-(2-methylpyridin-4-yl)oxazole-4-carboxamide] and `Cc1cc(-c2nc(C(=O)Nc3cc4cnn(C5CC5)c4cc3N3CCCCC3)co2)ccn1` [Example 31, N-(1-cyclopropyl-6-(piperidin-1-yl)-1H-indazol-5-yl)-2-(2-methylpyridin-4-yl)oxazole-4-carboxamide hydrochloride] cannot be ordered by IC50: less than 0.05 µM for the first, less than 0.05 µM for the second.

`Cn1ncc2cc(NC(=O)c3coc(-c4ccnc(N)c4)n3)c(N3CCC(CO)CC3)cc21` [Example 99, 2-(2-aminopyridin-4-yl)-N-(6-(4-(hydroxymethyl)piperidin-1-yl)-1-methyl-1H-indazol-5-yl)oxazole-4-carboxamide hydrochloride] and `Cc1ncccc1-c1nc(C(=O)Nc2cc3cn(C4CCCC4)nc3cc2C2CC2)co1` [Example 26, N-(2-cyclopentyl-6-cyclopropyl-2H-indazol-5-yl)-2-(2-methylpyridin-3-yl)oxazole-4-carboxamide] cannot be ordered by IC50: less than 0.05 µM for the first, less than 0.05 µM for the second.
